Reference: patent US20250051337A1 (priority 2021, published 2025)

Legend:
STK4 = STK4 (Homo sapiens (Human), UniProt Q13043); test: ADP-Glo kinase assay, STK4; assay type: biochemical; settings: ADP-Glo, 50 μM ATP; read-out: STK4 IC50
Experimental: (§1) The STK3 kinase assay was performed in 5 μL reaction buffer containing 50 ng recombinant human STK3 protein (full length, SignalChem #S24-10G; Richmond, Canada), 250 μg/mL myelin basic protein (Sigma-Aldrich #M1891; St. Louis, MO, USA), and 50 μM ATP (Sigma-Aldrich #A7699). The STK4 kinase assay was performed in 5 μL reaction buffer containing 50 ng recombinant human STK4 protein (full length, SignalChem #S25-10G), 300 μg/mL Axltide (SignalChem #A16-58), and 50 μM ATP. […] Three experiments were performed, each in triplicate.

STK3 = STK3 (Homo sapiens (Human), UniProt Q13188); test: ADP-Glo kinase assay, STK3; assay type: biochemical; settings: ADP-Glo, 50 μM ATP; read-out: STK3 IC50
Sequence of STK3 (Q13188 whole entry): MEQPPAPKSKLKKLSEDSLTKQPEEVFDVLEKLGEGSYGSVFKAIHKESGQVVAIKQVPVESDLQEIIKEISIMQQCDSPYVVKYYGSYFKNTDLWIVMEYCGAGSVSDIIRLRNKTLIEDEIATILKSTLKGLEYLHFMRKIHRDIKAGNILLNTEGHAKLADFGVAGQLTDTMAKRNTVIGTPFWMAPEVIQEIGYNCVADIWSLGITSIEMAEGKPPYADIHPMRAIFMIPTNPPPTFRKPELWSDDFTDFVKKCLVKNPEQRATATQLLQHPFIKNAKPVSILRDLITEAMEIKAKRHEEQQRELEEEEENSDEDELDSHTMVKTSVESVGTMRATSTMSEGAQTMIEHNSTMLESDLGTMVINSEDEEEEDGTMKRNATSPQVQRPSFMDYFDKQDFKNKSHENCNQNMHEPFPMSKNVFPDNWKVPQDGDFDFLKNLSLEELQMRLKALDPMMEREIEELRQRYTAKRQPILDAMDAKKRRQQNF
Experimental: as §1

Sequence of STK4 (Q13043 whole entry): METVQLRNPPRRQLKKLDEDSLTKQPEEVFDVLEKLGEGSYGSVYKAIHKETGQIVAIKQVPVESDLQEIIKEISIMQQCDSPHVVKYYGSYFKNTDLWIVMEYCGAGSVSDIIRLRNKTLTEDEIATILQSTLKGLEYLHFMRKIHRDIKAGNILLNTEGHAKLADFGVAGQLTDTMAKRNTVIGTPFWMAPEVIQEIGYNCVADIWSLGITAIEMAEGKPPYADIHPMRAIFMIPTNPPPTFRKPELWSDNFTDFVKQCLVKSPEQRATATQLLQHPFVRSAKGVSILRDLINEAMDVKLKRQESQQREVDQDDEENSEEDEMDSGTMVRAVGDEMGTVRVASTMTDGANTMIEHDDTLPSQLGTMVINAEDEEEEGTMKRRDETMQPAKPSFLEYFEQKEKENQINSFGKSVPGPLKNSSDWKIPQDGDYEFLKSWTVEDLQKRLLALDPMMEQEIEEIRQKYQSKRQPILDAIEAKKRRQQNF

| Compound | IC50 (STK4) [nM] | IC50 (STK3) [nM] |
| --- | --- | --- |
| CN(C)CCNc1ncnc2[nH]cc(-c3cccc(Cl)c3)c12 [Compound 57, N1-(5-(3-chlorophenyl)-7H-pyrrolo[2,3-d]pyrimidin-4-yl)-N2,N2-dimethylethane-1,2-diamine] | > 5000 | > 5000 |
| COCCNc1ncnc2[nH]cc(-c3cccc(Cl)c3)c12 [Compound 58, 5-(3-chlorophenyl)-N-(2-methoxyethyl)-7H-pyrrolo[2,3-d]pyrimidin-4-amine] | > 5000 | > 5000 |
| Clc1cccc(-c2c[nH]c3ncnc(NCc4ccoc4)c23)c1 [Compound 62, 5-(3-chlorophenyl)-N-(furan-3-ylmethyl)-7H-pyrrolo[2,3-d]pyrimidin-4-amine] | < 1000 | < 1000 |
| Clc1cccc(-c2c[nH]c3ncnc(NCCc4ccccn4)c23)c1 [Compound 63, 5-(3-chlorophenyl)-N-(2-(pyridin-2-yl)ethyl)-7H-pyrrolo[2,3-d]pyrimidin-4-amine] | < 1000 | 1000 to 5000 |
| CC(C)CCNc1ncnc2[nH]cc(-c3cccc(Cl)c3)c12 [Compound 64, 5-(3-chlorophenyl)-N-isopentyl-7H-pyrrolo[2,3-d]pyrimidin-4-amine] | 1000 to 5000 | 1000 to 5000 |
| CN1CCC(Nc2ncnc3[nH]cc(-c4cccc(Cl)c4)c23)CC1 [Compound 65, 5-(3-chlorophenyl)-N-(1-methylpiperidin-4-yl)-7H-pyrrolo[2,3-d]pyrimidin-4-amine] | 1000 to 5000 | 1000 to 5000 |
| Clc1cccc(-c2c[nH]c3ncnc(NCCN4CCOCC4)c23)c1 [Compound 66, 5-(3-chlorophenyl)-N-(2-morpholinoethyl)-7H-pyrrolo[2,3-d]pyrimidin-4-amine] | 1000 to 5000 | 1000 to 5000 |
| COc1ccccc1CNc1ncnc2[nH]cc(-c3cccc(Cl)c3)c12 [Compound 68, 5-(3-chlorophenyl)-N-(2-methoxybenzyl)-7H-pyrrolo[2,3-d]pyrimidin-4-amine] | 1000 to 5000 | 1000 to 5000 |

Results, then the compound that gave them:

| IC50 (STK4) [nM] | IC50 (STK3) [nM] | Compound |
| --- | --- | --- |
| < 1000 | < 1000 | CCCNc1ncnc2[nH]cc(-c3cccc(Cl)c3)c12 [Compound 50, 5-(3-chlorophenyl)-N-propyl-7H-pyrrolo[2,3-d]pyrimidin-4-amine] |
| < 1000 | < 1000 | CCN(CC)c1ncnc2[nH]cc(-c3cccc(Cl)c3)c12 [Compound 51, 5-(3-chlorophenyl)-N,N-diethyl-7H-pyrrolo[2,3-d]pyrimidin-4-amine] |
| < 1000 | < 1000 | CC(C)CNc1ncnc2[nH]cc(-c3cccc(Cl)c3)c12 [Compound 52, 5-(3-chlorophenyl)-N-isobutyl-7H-pyrrolo[2,3-d]pyrimidin-4-amine] |
| < 1000 | < 1000 | C=CCNc1ncnc2[nH]cc(-c3cccc(Cl)c3)c12 [Compound 53, N-allyl-5-(3-chlorophenyl)-7H-pyrrolo[2,3-d]pyrimidin-4-amine] |
| < 1000 | < 1000 | OCCNc1ncnc2[nH]cc(-c3cccc(Cl)c3)c12 [Compound 54, 2-((5-(3-chlorophenyl)-7H-pyrrolo[2,3-d]pyrimidin-4-yl)amino)ethan-1-ol] |
| < 1000 | 1000 to 5000 | FC(F)(F)CNc1ncnc2[nH]cc(-c3cccc(Cl)c3)c12 [Compound 55, 5-(3-chlorophenyl)-N-(2,2,2-trifluoroethyl)-7H-pyrrolo[2,3-d]pyrimidin-4-amine] |
| < 1000 | 1000 to 5000 | Clc1cccc(-c2c[nH]c3ncnc(NCc4ccn[nH]4)c23)c1 [Compound 59, N-((1H-pyrazol-5-yl)methyl)-5-(3-chlorophenyl)-7H-pyrrolo[2,3-d]pyrimidin-4-amine] |
| < 1000 | 1000 to 5000 | Clc1cccc(-c2c[nH]c3ncnc(NCC4CCOCC4)c23)c1 [Compound 61, 5-(3-chlorophenyl)-N-((tetrahydro-2H-pyran-4-yl)methyl)-7H-pyrrolo[2,3-d]pyrimidin-4-amine] |
